Measurements from paper PMC8452302 (CPT: Pharmacometrics & Systems Pharmacology, 2021).
Where two headings read alike, the source gives them in different places.

How the values were obtained:
[1] = biological target: T1, OATP1B1 (Homo sapiens, UniProt Q9Y6L6); assay: In vitro OATP1B1 inhibition, transfected HEK293 cells, rosuvastatin probe; type: cell-based
T1 sequence (Q9Y6L6 1-691): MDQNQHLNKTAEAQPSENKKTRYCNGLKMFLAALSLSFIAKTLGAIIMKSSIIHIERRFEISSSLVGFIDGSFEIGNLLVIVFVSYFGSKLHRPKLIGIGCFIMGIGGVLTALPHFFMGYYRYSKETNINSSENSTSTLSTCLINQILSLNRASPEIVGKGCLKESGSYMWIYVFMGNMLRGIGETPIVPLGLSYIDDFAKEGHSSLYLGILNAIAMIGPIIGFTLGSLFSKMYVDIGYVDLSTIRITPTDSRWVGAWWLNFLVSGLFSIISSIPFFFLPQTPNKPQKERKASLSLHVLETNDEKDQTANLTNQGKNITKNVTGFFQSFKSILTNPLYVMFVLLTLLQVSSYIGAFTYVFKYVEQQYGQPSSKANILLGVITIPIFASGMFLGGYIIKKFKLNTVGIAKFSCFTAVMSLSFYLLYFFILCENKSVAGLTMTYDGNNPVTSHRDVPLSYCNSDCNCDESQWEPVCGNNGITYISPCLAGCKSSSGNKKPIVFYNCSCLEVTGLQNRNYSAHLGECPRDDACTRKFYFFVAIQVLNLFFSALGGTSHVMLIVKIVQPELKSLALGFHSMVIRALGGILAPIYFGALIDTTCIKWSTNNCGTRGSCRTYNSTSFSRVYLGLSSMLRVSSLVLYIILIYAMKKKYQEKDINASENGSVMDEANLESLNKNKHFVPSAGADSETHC

[2] = cited from earlier work; for Rosuvastatin AUC ratio: observed, rosuvastatin with vs without inhibitor; for Rosuvastatin AUC ratio / Cmax ratio Observed: ref Table S1; for Cmax ratio Observed: rosuvastatin with/without inhibitor, regimens as in table row
[3] = biological target: T2, BCRP (Homo sapiens, UniProt Q9UNQ0); assay: In vitro BCRP inhibition, HEK293-BCRP membrane vesicles, rosuvastatin probe; type: biochemical
T2 sequence (Q9UNQ0 1-655): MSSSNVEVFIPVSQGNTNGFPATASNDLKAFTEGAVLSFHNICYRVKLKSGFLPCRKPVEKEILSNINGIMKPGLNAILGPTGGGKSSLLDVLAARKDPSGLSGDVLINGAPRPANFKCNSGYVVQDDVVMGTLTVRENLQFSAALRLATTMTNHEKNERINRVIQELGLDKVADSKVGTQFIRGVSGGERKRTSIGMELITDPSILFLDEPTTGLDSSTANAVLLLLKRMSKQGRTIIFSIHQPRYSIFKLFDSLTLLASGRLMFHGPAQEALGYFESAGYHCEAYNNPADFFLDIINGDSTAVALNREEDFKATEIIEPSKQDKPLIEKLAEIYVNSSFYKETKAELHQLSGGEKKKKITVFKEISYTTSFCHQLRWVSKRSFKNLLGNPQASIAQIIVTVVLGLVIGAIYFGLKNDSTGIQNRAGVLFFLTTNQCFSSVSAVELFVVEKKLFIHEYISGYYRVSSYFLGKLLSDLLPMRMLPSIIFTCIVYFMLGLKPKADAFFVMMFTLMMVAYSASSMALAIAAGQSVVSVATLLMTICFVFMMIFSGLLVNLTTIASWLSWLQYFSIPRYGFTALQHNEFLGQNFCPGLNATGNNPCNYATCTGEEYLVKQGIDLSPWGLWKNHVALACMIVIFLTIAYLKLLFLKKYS

[4] = biological target: T1, OATP1B1; assay: Static DDI risk assessment, OATP1B1 R-value; settings: 1 + Iin,max,u/IC50; metabolite/combination additive; Imax,u for IV
[5] = biological target: T3, OATP1B3 (Homo sapiens, UniProt Q9NPD5); assay: In vitro OATP1B3 inhibition, transfected HEK293 cells, rosuvastatin probe; type: cell-based
T3 sequence (Q9NPD5 1-702): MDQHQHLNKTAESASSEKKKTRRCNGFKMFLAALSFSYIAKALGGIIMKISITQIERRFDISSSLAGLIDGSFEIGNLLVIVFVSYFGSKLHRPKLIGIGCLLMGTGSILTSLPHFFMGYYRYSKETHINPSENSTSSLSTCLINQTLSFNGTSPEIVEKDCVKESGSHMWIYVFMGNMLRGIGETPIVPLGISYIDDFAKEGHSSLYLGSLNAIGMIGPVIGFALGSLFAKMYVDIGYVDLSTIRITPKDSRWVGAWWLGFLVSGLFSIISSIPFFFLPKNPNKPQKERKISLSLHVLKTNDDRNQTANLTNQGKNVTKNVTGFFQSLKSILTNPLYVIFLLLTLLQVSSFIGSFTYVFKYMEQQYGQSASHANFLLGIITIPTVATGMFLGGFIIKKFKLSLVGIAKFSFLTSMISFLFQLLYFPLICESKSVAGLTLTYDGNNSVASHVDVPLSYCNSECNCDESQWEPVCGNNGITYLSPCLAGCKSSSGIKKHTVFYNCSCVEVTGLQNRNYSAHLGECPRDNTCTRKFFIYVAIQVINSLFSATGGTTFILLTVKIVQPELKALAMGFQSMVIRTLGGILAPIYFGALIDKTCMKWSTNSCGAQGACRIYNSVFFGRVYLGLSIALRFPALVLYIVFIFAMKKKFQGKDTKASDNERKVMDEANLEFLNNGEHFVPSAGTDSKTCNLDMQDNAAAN

[6] = biological target: T3, OATP1B3; assay: Static DDI risk assessment, OATP1B3 R-value; settings: 1 + Iin,max,u/IC50; metabolite/combination additive; Imax,u for IV
[7] = read-out: BCRP IC50, membrane vesicles, rosuvastatin 0.2 µM probe

SMILES | IC50 [1] | Rosuvastatin AUC ratio [2] | IC50 [3] | 1B1 R-Value [4] | Cmax ratio Observed [2] | IC50 [5] | 1B3 R-Value [6] | IC50 [3, 7] | Rosuvastatin AUC ratio ([2]; listed as darolutamide) | IC50 at 1 min ([5]; human, HEK293 cells transfected with OATP1B3, pH 7.4, probe rosuvastatin 0.3 µM) | reduction of renal clearance of rosuvastatin ([2]; probenecid 1000 mg)
O=c1ccc2ccc(OCCCCN3CCN(c4cccc5sccc45)CC3)cc2[nH]1 [Brexpiprazole] | 13.2 µM | 1.12 | 100 µM | 1.00 |  |  |  |  |  |  | 
CNC(=O)c1ccc(-c2cnc3ncc(Cc4ccc5ncccc5c4)n3n2)cc1F [Capmatinib] | 3.3 µM | 2.03 | 0.69 µM | 1.35 | 3.05 | 14.5 µM | 1.08 |  |  |  | 
CC[C@H]1OC(=O)[C@H](C)[C@@H](O[C@H]2C[C@@](C)(OC)[C@@H](O)[C@H](C)O2)[C@H](C)[C@@H](O[C@@H]2O[C@H](C)C[C@H](N(C)C)[C@H]2O)[C@](C)(OC)C[C@@H](C)C(=O)[C@H](C)[C@@H](O)[C@]1(C)O [Clarithromcyin] |  | 1.58 |  | 1.99 |  |  | 1.35 | 411 µM |  |  | 
COC(=O)N[C@H](C(=O)N1CCC[C@H]1c1nc(-c2ccc(-c3ccc(-c4c[nH]c([C@@H]5CCCN5C(=O)[C@@H](NC(=O)OC)C(C)C)n4)cc3)cc2)c[nH]1)C(C)C [Daclatasvir] |  | 1.47 | 1.1 µM | 1.18 |  |  | 1.08 |  |  |  | 
CC(O)c1cc(C(=O)N[C@@H](C)Cn2ccc(-c3ccc(C#N)c(Cl)c3)n2)[nH]n1 (some centres unmarked) [Darolutamide] |  | 5.50 | 0.09 µM | 1.09 | 5.50 | 20.2 µM | 1.02 |  | > 5 |  | 
C[C@](O)(COc1ccc(C#N)cc1)C(=O)Nc1ccc(C#N)c(C(F)(F)F)c1 [Enobosarm] |  | 1.18 | 1.1 µM | 1.00 |  |  |  |  |  |  | 
COc1cc(Nc2ncc(F)c(Nc3ccc4c(n3)N(COP(=O)(O)O)C(=O)C(C)(C)O4)n2)cc(OC)c1OC [Fostamatinib] | 0.89 µM | 1.95 | 2 µM |  | 1.90 | 7.4 µM |  |  |  |  | 
CC(C)c1noc(N2CCC(COc3ccc(-c4ccc(S(C)(=O)=O)cc4)nc3)CC2)n1 [GSK1292263] | > 30 µM | 1.39 | 3 µM | 1.03 |  |  |  |  |  |  | 
Cc1ccc(C)c(OCCCC(C)(C)C(=O)O)c1 [Gemfibrozil] |  | 1.88 | 295 µM | 2.60 | 2.21 | 10 µM | 1.15 |  |  |  | 
CC(O)C(C)n1ncn(-c2ccc(N3CCN(c4ccc(OCC5COC(Cn6cncn6)(c6ccc(Cl)cc6Cl)O5)cc4)CC3)cc2)c1=O (centres unmarked) [Hydroxy‐itraconazole] | 1.4 µM |  |  |  |  |  |  |  |  |  | 
CC[C@H](Nc1ncnc2[nH]cnc12)c1nc2cccc(F)c2c(=O)n1-c1ccccc1 [Idelalisib] | 3.13 µM |  | 54.4 µM | 1.19 |  | 7 µM |  |  |  |  | 
CC(=O)c1cc(C(=O)N[C@@H](C)Cn2ccc(-c3ccc(C#N)c(Cl)c3)n2)[nH]n1 [Keto‐darolutamide] |  |  |  |  |  |  |  | 0.56 µM |  |  | 
COc1ccnc(C[S+]([O-])c2nc3ccc(OC(F)F)cc3[nH]2)c1OC (centres unmarked) [Pantoprazole] | > 500 µM |  | 6.1 µM | 1.01 |  |  |  |  |  | > 500 µM | 
O=C(O)C[C@H]1CC[C@H](c2ccc(-c3ccc(Nc4ccc(C(F)(F)F)nc4)cn3)cc2)CC1 [Pradigastat] | 1.48 µM | 0.96 | 0.71 µM | 1.03 |  |  | 1.01 |  |  |  | 
CCCN(CCC)S(=O)(=O)c1ccc(C(=O)O)cc1 [Probenecid] |  |  | 216 µM | 1.99 |  | 339 µM | 1.11 |  |  |  | ~80%
COc1cc(Nc2ncc(F)c(Nc3ccc4c(n3)NC(=O)C(C)(C)O4)n2)cc(OC)c1OC [R406] |  |  |  |  |  |  |  | 0.065 µM |  |  | 
CO[C@H]1/C=C/O[C@@]2(C)Oc3c(C)c(O)c4c(O)c(c(/C=N/N5CCN(C)CC5)c(O)c4c3C2=O)NC(=O)/C(C)=C\C=C\[C@H](C)[C@H](O)[C@@H](C)[C@@H](O)[C@@H](C)[C@H](OC(C)=O)[C@@H]1C [Rifampicin] | 0.29 µM |  |  | 10.20 |  | 0.73 µM | 4.65 |  |  |  | 
CCCc1nc2c(C)cc(-c3nc4ccccc4n3C)cc2n1Cc1ccc(-c2ccccc2C(=O)O)cc1 [Telmisartan] | 3.06 µM | 1.20 | 0.61 µM | 1.01 |  |  | 1.03 |  |  |  | 
COC[C@H]1C[C@@H](c2ncc(-c3ccc4c(c3)COc3cc5c(ccc6nc([C@@H]7CC[C@H](C)N7C(=O)[C@@H](NC(=O)OC)C(C)C)[nH]c65)cc3-4)[nH]2)N(C(=O)[C@H](NC(=O)OC)c2ccccc2)C1 [Velpatasvir] |  | 2.59 | 0.09 µM | 1.00 | 2.50 |  | 1.02 |  |  |  | 
CC(C)(C)c1ccc(S(=O)(=O)Nc2ccc(Cl)cc2C(=O)c2cc[n+]([O-])cc2)cc1 [Vercirnon] | 2.1 µM | 0.99 | 3.3 µM | 2.02 |  |  |  |  |  |  | 
